Measurements from article PMC7146870, “VanZ Reduces the Binding of Lipoglycopeptide Antibiotics to Staphylococcus aureus and Streptococcus pneumoniae Cells” (Frontiers in Microbiology, 2020).
≈ marks a conversion by molar mass, not a printed value. Like-named read-outs stand apart in the source and are kept apart here.

Columns and labels:
S. aureus ATCC29213 = assay: MIC, broth microdilution, control strain; format: cell-based, Staphylococcus aureus; conditions: ISO 20776-1 (EUCAST 2019), performed twice in triplicate
Procedure: (§1) Minimal Inhibitory Concentrations were measured by the broth microdilution method according to ISO standard 20776-1 (EUCAST 2019). S. aureus strains with pRMC2, pRMC2:vanZTei and pRMC2:vanZg plasmids were cultured in the presence of 25 μg/ml chloramphenicol and 100 ng/ml AnhTet (Sigma-Aldrich, Germany) to induce vanZ gene expression. All measurements were performed twice in triplicate. S. aureus ATCC29213 was used as a control. MIC values of clinically accepted glycopeptide antibiotics were interpreted according to EUCAST clinical breakpoints (EUCAST, 2019).

S. aureus RN4220 pRMC2 = assay: MIC, broth microdilution, empty vector strain; format: cell-based, Staphylococcus aureus; conditions: ISO 20776-1, 25 μg/ml chloramphenicol and 100 ng/ml AnhTet, twice in triplicate
Text: (§2) The vanZTei and vanZg genes and their ribosome binding sites were amplified from the plasmid pAT398 ([Arthur et al., 1995]) and E. faecium Aus0004 chromosomal DNA, respectively, using the primers TecVanZ_SacI_F, TecVanZ_R, gVanZ_SacI_F, and gVanZ_R (Supplementary Table S1). The PCR products were cloned into the pRMC2 shuttle vector under the control of the anhydrotetracycline (AnhTet)-inducible promoter Pxyl/tetO using SacI and EcoRI restriction sites, resulting in the constructs pRMC2:vanZTei and pRMC2:vanZg. The constructs were confirmed by sequencing and then electroporated into S. aureus RN4220. Using the same procedure, we prepared the constructs pRMC2:vanZTei-His and pRMC2:vanZg-His encoding C-terminal His-tagged VanZ variants. However, primers TecVanZhis_R and gVanZhis_R replaced the reverse primers TecVanZ_R and gVanZ_R.
as §1

[1] = system: S. aureus RN4220 pRMC2:vanZTei; assay: MIC, broth microdilution, strain expressing vanZTei; format: cell-based, Staphylococcus aureus; conditions: for MIC: S. aureus RN4220 vanZTei, broth microdilution, ISO 20776-1, 25 μg/ml chloramphenicol and 100 ng/ml AnhTet, twice in triplicate; for decrease of susceptibility of S. aureus by expression of vanZTei: MIC of RN4220 vanZTei versus RN4220 pRMC2
Text: as §2, §1

[2] = system: S. aureus RN4220 pRMC2:vanZg; assay: MIC, broth microdilution, strain expressing vanZg; format: cell-based, Staphylococcus aureus; conditions: for MIC: S. aureus RN4220 vanZg, broth microdilution, ISO 20776-1, 25 μg/ml chloramphenicol and 100 ng/ml AnhTet, twice in triplicate; for decrease of susceptibility of S. aureus by expression of vanZg: MIC of RN4220 vanZg versus RN4220 pRMC2
Text: as §2, §1

S. pneumoniae R6 = assay: MIC, broth microdilution, wild type; format: cell-based, Streptococcus pneumoniae; conditions: ISO 20776-1, twice in triplicate
Procedure: as §1

S. pneumoniae R6 ΔvanZ = assay: MIC, broth microdilution, vanZ knockout; format: cell-based, Streptococcus pneumoniae
Text: (§3) Strain Sp539 (ΔvanZ) was constructed using a Sweet Janus cassette-based two-step negative selection strategy ([Sung et al., 2001]; [Li et al., 2014]). The Sweet Janus cassette contains the kanamycin resistance gene, the recessive rpsL gene and the sacB gene, which confers sucrose sensitivity (Su^S), as counterselectable markers. In the first step, 1000 bp fragments corresponding to the upstream and downstream flanking regions of the vanZ gene (spr0050) were amplified from the wild-type chromosomal DNA with the primer pairs KB60/KB61 and KB62/KB63, respectively. The Sweet Janus cassette (2807 bp) amplified from the Sweet Janus cassette DNA fragment with the primers DP1/DP2 was attached to the regions flanking vanZ by fusion PCR using primers KB60 and KB63. The resulting PCR fragment was used for the transformation of the S. pneumoniae R6 strain, and Kan^R/Su^S transformants (Sp537, vanZ:kan sacB) were selected. The PCR fragments consisting of the upstream and downstream flanking regions of the vanZ gene were amplified by the KB60/KB65 and KB64/KB63 primer pairs, respectively, and fused by overlap extension using primers KB60/KB63. The resulting fragment was transformed into the Sp537 strain to obtain Sp539 (Su^R/Kan^S). To complement the vanZ deletion, we constructed strain Sp635 (Su^R/Kan^S; ΔvanZ:vanZ) by transforming strain Sp537 (Kan^R/Su^S) with the PCR fragment amplified with the primers KB60 and KB63 that contained wild-type loci using R6 chromosomal DNA as a template.
as §1

[3] = system: S. pneumoniae R6 ΔvanZ:vanZ; assay: MIC, broth microdilution, vanZ-reverted strain; format: cell-based, Streptococcus pneumoniae
Text: as §3, §1

[4] = Staphylococcus aureus, ATCC29213, S. aureus ATCC 29213 (control), read-out: MIC
[5] = Staphylococcus aureus, RN4220PRMC2, S. aureus RN4220 pRMC2 (no VanZ), read-out: MIC
[6] = Staphylococcus aureus, read-out: MIC
[7] = Streptococcus pneumoniae, read-out: MIC
[8] = S. pneumoniae R6 ΔvanZ, broth microdilution, ISO 20776-1, twice in triplicate
[9] = S. pneumoniae R6 ΔvanZ:vanZ (complemented), broth microdilution, ISO 20776-1, twice in triplicate
[10] = S. aureus RN4220 pRMC2 (no VanZ)

Compound | MIC (S. aureus ATCC29213; [4]) [µg/mL] | MIC (S. aureus RN4220 pRMC2; [5]) [µg/mL] | MIC [1, 6] [µg/mL] | MIC [2, 6] [µg/mL] | MIC (S. pneumoniae R6; [7]) [µg/mL] | MIC (S. pneumoniae R6 ΔvanZ; Streptococcus pneumoniae) [µg/mL] | MIC ([3]; Streptococcus pneumoniae) [µg/mL] | MIC (S. aureus ATCC29213; S. aureus ATCC 29213 (control)) [µg/mL] | decrease of susceptibility of S. aureus by expression of vanZTei [1] | decrease of susceptibility of S. aureus by expression of vanZg [2] | MIC [2] [µg/mL] | MIC (S. pneumoniae R6) [µg/mL] | MIC (S. pneumoniae R6 ΔvanZ; [8]) [µg/mL] | MIC [3, 9] [µg/mL] | MIC (S. aureus RN4220 pRMC2; [10]) [µg/mL] | MIC [1] [µg/mL] | sensitivity of the ΔvanZ mutant compared with the wild-type strain (S. pneumoniae R6 ΔvanZ; MIC of S. pneumoniae R6 ΔvanZ versus R6)
CC1(C)S[C@@H]2[C@H](NC(=O)C(C(=O)O)c3ccccc3)C(=O)N2[C@H]1C(=O)O (some centres unmarked) [CARB, carbenicillin] | 0.25 (≈ 0.661 µM) | 0.25 (≈ 0.661 µM) | 0.25 (≈ 0.661 µM) | 0.25 (≈ 0.661 µM) | 0.0625 (≈ 0.165 µM) | 0.0625 (≈ 0.165 µM) | 0.0625 (≈ 0.165 µM) |  |  |  |  |  |  |  |  |  | 
CC[C@H]1OC(=O)[C@H](C)[C@@H](O[C@H]2C[C@@](C)(OC)[C@@H](O)[C@H](C)O2)[C@H](C)[C@@H](O[C@@H]2O[C@H](C)C[C@H](N(C)C)[C@H]2O)[C@](C)(O)C[C@@H](C)C(=O)[C@H](C)[C@@H](O)[C@]1(C)O [ERY, erythromycin] | 0.125 (≈ 0.17 µM) | 0.125 (≈ 0.17 µM) | 0.125 (≈ 0.17 µM) | 0.125 (≈ 0.17 µM) | 0.125 (≈ 0.17 µM) | 0.125 (≈ 0.17 µM) | 0.125 (≈ 0.17 µM) |  |  |  |  |  |  |  |  |  | 
CNC(C)C1CCC(N)C(OC2C(N)CC(N)C(OC3OCC(C)(O)C(NC)C3O)C2O)O1 (centres unmarked) [GEN, gentamicin] | 1 (≈ 2.09 µM) | 1 (≈ 2.09 µM) | 1 (≈ 2.09 µM) | 1 (≈ 2.09 µM) | 0.25 (≈ 0.523 µM) | 0.25 (≈ 0.523 µM) | 0.25 (≈ 0.523 µM) |  |  |  |  |  |  |  |  |  | 
dalbavancin |  |  |  |  |  |  |  | 0.125 | less or no activity | four-fold | 0.5 | 0.03125 | 0.0078 |  |  |  | 
oritavancin |  |  |  |  |  |  |  | 0.125 | less or no activity | two times | 0.25 | 0.0078 | 0.0039 | 0.0078 |  |  | 
teicoplanin |  |  |  |  |  |  |  | 0.125 | less or no activity | 16 fold | 8 | 0.125 | 0.03125 |  | 0.5 | 1 | 
vancomycin |  |  |  |  |  |  |  | 0.25 |  |  | 1 | 0.25 | 0.25 | 0.25 | 0.5 | 0.5 | not
